Each block holds one compound with its values, some of them ahead of it.
How the values were obtained:
[1] = tested on: mice; experiment: In vivo delivery of FLuc-mRNA lipid nanoparticles in mice, in vivo imaging (IVIS)
Method in brief: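 Mice (n=3) received about 75 μL FLuc-mRNA LNP per mouse intramuscularly (rectus femoris), intravenously (tail vein), intraperitoneally or subcutaneously (back). After injection, D-luciferin (200 μL, 15 mg/mL) was given i.p. 10-15 min before IVIS imaging.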

[2] = Particle size and PDI of nucleic acid lipid nanoparticle preparations by dynamic light scattering; format: physicochemical
Description: The 7.5 μL nucleic acid lipid nanoparticle solution (containing approximately 0.04 mg/mL mRNA) was taken and added with 200 μL ultrapure water, mixed by gentle blowing using a pipette tip, and the particle size of the nanopreparation was detected by dynamic lightscattering (DLS) using a Malvern Dynamic Light Scattering Instrument (Malvern Instruments Ltd., ZEN3700, UK).
27.5 μL nucleic acid lipid nanoparticle solution (containing about 0.04 mg/mL mRNA) was taken and added with 200 μL ultrapure water. A pipette tip was used to gently blow the sample and mix well. The particle size of the nanopreparation was detected by Malvern Dynamic Light Scattering Instrument (Malvern Instruments Ltd., ZEN3700, UK). After the detection, the sample was recovered to an EP tube, and 600 μL of ultrapure water was added, gently blown with a pipette tip, and the potential of the nanopreparation was measured by a Malvern particle size meter.

[3] = DMG-PEG2000:DSPC:Chol:Lipid 1.40:11.15:38.95:48.50, N/P 30, IM, whole body scan
[4] = DMG-PEG2000:DSPC:Chol:Lipid 1.40:11.15:38.95:48.50, N/P 30, IV, body (whole body scan)
[5] = DMG-PEG2000:DSPC:Chol:Lipid 1.40:11.15:38.95:48.50, N/P 30, IV, liver
[6] = DMG-PEG2000:DSPC:Chol:Lipid 1.40:11.15:38.95:48.50, N/P 30, IV, lung
[7] = DMG-PEG2000:DSPC:Chol:Lipid 1.40:11.15:38.95:48.50, N/P 30, IV, spleen
[8] = DMG-PEG2000:DSPC:Chol:Lipid 1.50:11.50:52.00:35.00, N/P 18, IV, liver
[9] = DMG-PEG2000:DSPC:Chol:Lipid 1.50:11.50:52.00:35.00, N/P 18, IV, lung
[10] = DMG-PEG2000:DSPC:Chol:Lipid 1.50:11.50:52.00:35.00, N/P 18, IV, spleen
[11] = DMG-PEG2000:DSPC:Chol:Lipid 1.40:11.15:38.95:48.50, N/P 30, mRNA LNP
[12] = DMG-PEG2000:DSPC:Chol:Lipid 1.50:11.50:52.00:35.00, N/P 18, mRNA LNP
[13] = DMG-PEG2000:DSPC:Chol:Lipid 2.63:12.10:53.68:31.59, N/P 30, IV, liver
[14] = DMG-PEG2000:DSPC:Chol:Lipid 2.63:12.10:53.68:31.59, N/P 30, IV, lung
[15] = DMG-PEG2000:DSPC:Chol:Lipid 2.63:12.10:53.68:31.59, N/P 30, IV, spleen
[16] = DMG-PEG2000:DSPC:Chol:Lipid 2.63:12.10:53.68:31.59, N/P 30, mRNA LNP
[17] = DMG-PEG2000:DSPC:Chol:Lipid 1.40:11.15:38.95:48.50, N/P 18, mRNA LNP
[18] = IM, DMG-PEG2000:DSPC:Chol:compound 1.40:11.15:38.95:48.50, N/P 20, Fluc-mRNA
[19] = IV, organ not given, DMG-PEG2000:DSPC:Chol:compound 1.40:11.15:38.95:48.50, N/P 20, Fluc-mRNA
[20] = DMG-PEG2000:DSPC:Chol:compound 1.40:11.15:38.95:48.50, N/P 20
[21] = IM, DMG-PEG2000:DSPC:Chol:compound 1.40:11.15:38.95:48.50, N/P 30, Fluc-mRNA
[22] = IV, body, DMG-PEG2000:DSPC:Chol:compound 1.40:11.15:38.95:48.50, N/P 30, Fluc-mRNA
[23] = IV, liver, DMG-PEG2000:DSPC:Chol:compound 1.40:11.15:38.95:48.50, N/P 30
[24] = IV, liver, DMG-PEG2000:DSPC:Chol:compound 1.40:11.15:38.95:48.50, N/P 30, Fluc-mRNA
[25] = IV, lung, DMG-PEG2000:DSPC:Chol:compound 1.40:11.15:38.95:48.50, N/P 30
[26] = IV, lung, DMG-PEG2000:DSPC:Chol:compound 1.40:11.15:38.95:48.50, N/P 30, Fluc-mRNA
[27] = IV, spleen, DMG-PEG2000:DSPC:Chol:compound 1.40:11.15:38.95:48.50, N/P 30
[28] = IV, spleen, DMG-PEG2000:DSPC:Chol:compound 1.40:11.15:38.95:48.50, N/P 30, Fluc-mRNA
[29] = DMG-PEG2000:DSPC:Chol:compound 1.40:11.15:38.95:48.50, N/P 30

Compound: CCCCCCCCCCCCNC(=O)C(O)CN(CCCN(CCCCO)CCCN(CC(O)C(=O)NCCCCCCCCCCCC)CC(O)C(=O)NCCCCCCCCCCCC)CC(O)C(=O)NCCCCCCCCCCCC (centres unmarked) [Compound L0282]
IVIS [1, 3]: 5.98 × 10^6
IVIS [1, 4]: 1.50 × 10^7
% of organ targeting [1, 5]: 2.75%
IVIS [1, 5]: 6.77 × 10^5
% of organ targeting [1, 6]: 60.96%
IVIS [1, 6]: 1.50 × 10^7
% of organ targeting [1, 7]: 36.29%
IVIS [1, 7]: 8.93 × 10^6
IVIS ([1]; DMG-PEG2000:DSPC:Chol:Lipid 1.50:11.50:52.00:35.00, N/P 18, IV, body): 3.77 × 10^6
% of organ targeting [1, 8]: 7.18%
IVIS [1, 8]: 6.44 × 10^5
% of organ targeting [1, 9]: 8.27%
IVIS [1, 9]: 7.41 × 10^5
% of organ targeting [1, 10]: 84.55%
IVIS [1, 10]: 7.58 × 10^6
tissue-targeting specificity (lung vs spleen depending on molar percentage of compound) ([1]; certain formulations, Table 2): strong tissue-targeting specificity
PDI [2, 11]: 0.15 ± 0.02
Particle size [2, 11]: 85.38 ± 0.31 nm
PDI [2, 12]: 0.18 ± 0.00
Particle size [2, 12]: 100.32 ± 0.97 nm

Compound: CCCCCCCCCCCCNC(=O)C(O)CN(CCCCN(C)CCCCN(CC(O)C(=O)NCCCCCCCCCCCC)CC(O)C(=O)NCCCCCCCCCCCC)CC(O)C(=O)NCCCCCCCCCCCC (centres unmarked) [Compound L0283]
IVIS [1, 3]: 2.02 × 10^6
IVIS [1, 4]: 1.94 × 10^8
% of organ targeting [1, 5]: 0.75%
IVIS [1, 5]: 9.53 × 10^6
% of organ targeting [1, 6]: 98.03%
IVIS [1, 6]: 1.24 × 10^9
% of organ targeting [1, 7]: 1.22%
IVIS [1, 7]: 1.54 × 10^7
IVIS ([1]; DMG-PEG2000:DSPC:Chol:Lipid 2.63:12.10:53.68:31.59, N/P 30, IV, body): 4.87 × 10^7
% of organ targeting [1, 13]: 5.72%
IVIS [1, 13]: 3.31 × 10^6
% of organ targeting [1, 14]: 25.56%
IVIS [1, 14]: 1.48 × 10^7
% of organ targeting [1, 15]: 68.73%
IVIS [1, 15]: 3.98 × 10^7
in vivo delivery efficiency as compared to the benchmark compound SM102 ([1]; certain formulations, Table 2): superior in vivo delivery efficiency
tissue-targeting specificity (lung vs spleen depending on molar percentage of compound) ([1]; certain formulations, Table 2): strong tissue-targeting specificity
PDI [2, 11]: 0.12 ± 0.01
Particle size [2, 11]: 99.68 ± 0.45 nm
PDI [2, 16]: 0.12 ± 0.01
Particle size [2, 16]: 95.92 ± 0.22 nm

Compound: CC/C=C\CCOCOCCCCCCOC(=O)C(O)CN(C)CCN(C)CCN(C)CC(O)C(=O)OCCCCCCOCOCC/C=C\CC (centres unmarked) [Compound L0284]
IVIS ([1]; DMG-PEG2000:DSPC:Chol:Lipid 1.40:11.15:38.95:48.50, N/P 18, IM, whole body scan): 5.87 × 10^4
IVIS ([1]; DMG-PEG2000:DSPC:Chol:Lipid 1.40:11.15:38.95:48.50, N/P 18, IV, whole body scan): 2.03 × 10^5
PDI [2, 17]: 0.12 ± 0.02
Particle size [2, 17]: 150.97 ± 2.57 nm

Compound: CCCCCCCCC(CCCCCC)C(=O)OCCCCOC(=O)C(O)CN(CCN(C)CCN(CC(O)C(=O)OCCCCOC(=O)C(CCCCCC)CCCCCCCC)CC(O)C(=O)OCCCCOC(=O)C(CCCCCC)CCCCCCCC)CC(O)C(=O)OCCCCOC(=O)C(CCCCCC)CCCCCCCC (centres unmarked) [Compound L0298]
IVIS [1, 21]: 5.25E+07
IVIS [1, 22]: 1.30E+08
% of organ targeting [1, 23]: 39.52%
IVIS [1, 24]: 3.03E+07
% of organ targeting [1, 25]: 5.53%
IVIS [1, 26]: 4.23E+06
% of organ targeting [1, 27]: 54.95%
IVIS [1, 28]: 4.21E+07
PDI [2, 29]: 0.11
Particle size (nm) [2, 29]: 91.43 nm

Compound: CCCCCCCC/C=C\CCCCCCCCNC(=O)C(O)CN(CCN(C)CCN(CC(O)C(=O)NCCCCCCCC/C=C\CCCCCCCC)CC(O)C(=O)NCCCCCCCC/C=C\CCCCCCCC)CC(O)C(=O)NCCCCCCCC/C=C\CCCCCCCC (centres unmarked) [Compound L0299]
IVIS [1, 21]: 1.92E+06
IVIS [1, 22]: 1.55E+07
% of organ targeting [1, 23]: 7.28%
IVIS [1, 24]: 7.84E+05
% of organ targeting [1, 25]: 41.60%
IVIS [1, 26]: 4.48E+06
% of organ targeting [1, 27]: 51.12%
IVIS [1, 28]: 5.50E+06
PDI [2, 29]: 0.16
Particle size (nm) [2, 29]: 91.76 nm

Compound: CCCCCCCCCCCCNC(=O)C(O)CN(CCCCCN(CC(O)C(=O)NCCCCCCCCCCCC)CC(O)C(=O)NCCCCCCCCCCCC)CC(O)C(=O)NCCCCCCCCCCCC (centres unmarked) [Compound L0307]
IVIS [1, 18]: 1.43E+05
IVIS [1, 19]: 4.29E+05
PDI [2, 20]: 0.25
Particle size (nm) [2, 20]: 178.57 nm

The next lines start with results.

PDI [2, 11]: 0.16 ± 0.04
Particle size [2, 11]: 136.97 ± 0.92 nm
Compound: CCCCCCC(CCCCCC)C(=O)OCCCCCCOC(=O)C(O)CN(C)CCN(C)CCN(C)CC(O)C(=O)OCCCCCCOC(=O)C(CCCCCC)CCCCCC (centres unmarked) [Compound L0286]
IVIS [1, 3]: 3.05 × 10^3
IVIS [1, 4]: 4.41 × 10^6

PDI [2, 20]: 0.16
Particle size (nm) [2, 20]: 81.09 nm
Compound: CCCCCCCC/C=C\CCCCCCCCNC(=O)C(O)CN(C)CCN(C)CCN(C)CC(O)C(=O)NCCCCCCCC/C=C\CCCCCCCC (centres unmarked) [Compound L0296]
IVIS [1, 18]: 2.80E+05
IVIS [1, 19]: 2.97E+05

PDI [2, 29]: 0.13
Particle size (nm) [2, 29]: 119.00 nm
Compound: CCCCCCC(CCCCCC)C(=O)OCCCCOC(=O)C(O)CN(CCN(C)CCN(CC(O)C(=O)OCCCCOC(=O)C(CCCCCC)CCCCCC)CC(O)C(=O)OCCCCOC(=O)C(CCCCCC)CCCCCC)CC(O)C(=O)OCCCCOC(=O)C(CCCCCC)CCCCCC (centres unmarked) [Compound L0297]
IVIS [1, 21]: 8.34E+07
IVIS [1, 22]: 1.64E+08
% of organ targeting [1, 23]: 35.19%
IVIS [1, 24]: 3.82E+07
% of organ targeting [1, 25]: 13.24%
IVIS [1, 26]: 1.44E+07
% of organ targeting [1, 27]: 51.57%
IVIS [1, 28]: 5.59E+07

PDI [2, 20]: 0.18
Particle size (nm) [2, 20]: 109.93 nm
Compound: CCCCCCCCCCCCNC(=O)C(O)CN(CCOCCOCCN(CC(O)C(=O)NCCCCCCCCCCCC)CC(O)C(=O)NCCCCCCCCCCCC)CC(O)C(=O)NCCCCCCCCCCCC (centres unmarked) [Compound L0305]
IVIS [1, 18]: 4.39E+04
IVIS ([1]; IV, body, DMG-PEG2000:DSPC:Chol:compound 1.40:11.15:38.95:48.50, N/P 20, Fluc-mRNA): 8.12E+06
% of organ targeting ([1]; IV, liver, DMG-PEG2000:DSPC:Chol:compound 1.40:11.15:38.95:48.50, N/P 20): 35.21%
IVIS ([1]; IV, liver, DMG-PEG2000:DSPC:Chol:compound 1.40:11.15:38.95:48.50, N/P 20, Fluc-mRNA): 2.14E+06
% of organ targeting ([1]; IV, lung, DMG-PEG2000:DSPC:Chol:compound 1.40:11.15:38.95:48.50, N/P 20): 1.65%
IVIS ([1]; IV, lung, DMG-PEG2000:DSPC:Chol:compound 1.40:11.15:38.95:48.50, N/P 20, Fluc-mRNA): 1.00E+05
% of organ targeting ([1]; IV, spleen, DMG-PEG2000:DSPC:Chol:compound 1.40:11.15:38.95:48.50, N/P 20): 63.14%
IVIS ([1]; IV, spleen, DMG-PEG2000:DSPC:Chol:compound 1.40:11.15:38.95:48.50, N/P 20, Fluc-mRNA): 3.84E+06

PDI [2, 20]: 0.14
Particle size (nm) [2, 20]: 84.96 nm
Compound: CCCCCCCCCCCCNC(=O)C(O)CN(CCOCCN(CC(O)C(=O)NCCCCCCCCCCCC)CC(O)C(=O)NCCCCCCCCCCCC)CC(O)C(=O)NCCCCCCCCCCCC (centres unmarked) [Compound L0306]
IVIS [1, 18]: 1.82E+06
IVIS [1, 19]: 7.90E+06

From patent US12233161B1, “Lipids and lipid nanoparticle formulations” (LONGUIDE BIOPHARMA CORPORATION, priority 2024, dated 2025)
